Laboratory results: BindingDB's records for patent US20250313563 (The Broad Institute, 2025)
“And” between values parts separate entries of the source, which are not always exact repeats. Equal values may be shown once.

Tests used:
[1] = molecular target: Glycogen synthase kinase-3 beta (Homo sapiens, UniProt P49841); assay: TR-FRET Assay
Summary of the method: (§1)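 Kinase activity, measured after a 30-minute compound preincubation, was stopped with EDTA and quantified by TR-FRET using a Tb-labelled pSer641 antibody paired with streptavidin-d2.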

[2] = molecular target: Glycogen synthase kinase-3 alpha (Homo sapiens, UniProt P49840); assay: TR-FRET Assay
Summary of the method: as §1

Glycogen synthase kinase-3 beta, sequence (P49841 whole entry): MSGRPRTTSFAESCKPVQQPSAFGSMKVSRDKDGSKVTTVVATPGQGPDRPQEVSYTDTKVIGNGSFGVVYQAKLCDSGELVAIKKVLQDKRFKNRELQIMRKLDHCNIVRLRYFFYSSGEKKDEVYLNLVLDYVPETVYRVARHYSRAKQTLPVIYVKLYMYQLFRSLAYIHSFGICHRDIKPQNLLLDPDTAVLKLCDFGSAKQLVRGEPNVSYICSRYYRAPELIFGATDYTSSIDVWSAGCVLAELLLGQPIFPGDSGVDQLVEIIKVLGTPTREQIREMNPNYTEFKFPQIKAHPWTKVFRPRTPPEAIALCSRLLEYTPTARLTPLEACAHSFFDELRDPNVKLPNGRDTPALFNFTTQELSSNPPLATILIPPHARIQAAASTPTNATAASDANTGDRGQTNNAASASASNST
Glycogen synthase kinase-3 alpha, sequence (P49840 whole entry): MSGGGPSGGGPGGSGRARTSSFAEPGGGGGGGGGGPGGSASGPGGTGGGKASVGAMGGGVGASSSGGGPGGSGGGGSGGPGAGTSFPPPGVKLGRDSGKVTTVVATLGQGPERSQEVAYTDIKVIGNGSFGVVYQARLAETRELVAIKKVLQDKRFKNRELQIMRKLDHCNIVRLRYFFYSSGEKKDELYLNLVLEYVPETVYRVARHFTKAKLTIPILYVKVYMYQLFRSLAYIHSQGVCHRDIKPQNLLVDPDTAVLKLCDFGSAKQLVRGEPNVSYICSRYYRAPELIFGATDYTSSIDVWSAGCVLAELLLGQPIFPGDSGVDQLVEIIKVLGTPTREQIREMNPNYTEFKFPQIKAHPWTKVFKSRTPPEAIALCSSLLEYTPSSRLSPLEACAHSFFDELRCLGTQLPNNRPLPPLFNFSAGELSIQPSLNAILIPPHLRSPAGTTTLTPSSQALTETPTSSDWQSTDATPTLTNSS

SMILES | IC50 [1] | IC50 [2]
CC1(C)CC2=C(C(=O)N1)[C@@](C)(c1cccc(S(C)(=O)=O)c1)C1=C(N=NC1C1CC1)N2 (stereo partly drawn) [US20250313563, Compound 114679] | 100 to 1000 nM | < 100 nM
CCC1(c2cccc(S(=O)(=O)Cc3ccccc3)c2)C2=CN=NC2NC2=C1C(=O)CC(C)(C)C2 (stereo not drawn) [US20250313563, Compound 913258] | < 100 nM | < 100 nM
CC[C@@]1(c2cccc(S(C)(=O)=O)c2)C2=CN=NC2NC2=C1C(=O)CC(C)(C)C2 (stereo partly drawn) [US20250313563, Compound 826719] | > 5000 nM | 1000 to 5000 nM
CC1(C)CC(=O)C2=C(C1)NC1=C(CN=N1)[C@]21CCCOCC1 [US20250313563, Compound 874535] | < 100 nM | < 100 nM
CC[C@]1(c2cccc(-c3ccncc3)c2)C2=C(CC(C)(C)CC2=O)NC2N=NC(C)=C21 (stereo partly drawn) [US20250313563, Compound 913054] | 1000 to 5000 nM | 100 to 1000 nM
CC1(C)CC(=O)C2=C(C1)NC1=C(CN=N1)C21Cc2ccccc2C1 [US20250313563, Compound 897752] | 100 to 1000 nM | < 100 nM
CC[C@@H]1C[C@@]2(CCO1)C1=C(N=NC1)NC1=C2C(=O)CC(C)(C)C1 [US20250313563, Compound 907328] | 1000 to 5000 nM | 100 to 1000 nM
CC[C@@]1(c2cccc(C3CN(C(C)=O)C3)c2)C2=CN=NC2NC2=C1C(=O)CC(C)(C)C2 (stereo partly drawn) [US20250313563, Compound 949132] | > 5000 nM | > 5000 nM
CC[C@@]1(c2ccccc2)C2=CN=NC2NC2=C1C(=O)[C@H](F)C(C)(C)C2 (stereo partly drawn) [US20250313563, Compound 826766] | 100 to 1000 nM | 100 to 1000 nM
CC1(C)CC(=O)C2=C(C1)NC1=C(CN=N1)C21CCC(n2cnnc2)CC1 (stereo not drawn) [US20250313563, Compound 943894] | 100 to 1000 nM | < 100 nM
CC[C@]1(c2ccccc2)C2=CN=NC2NC2=C1C(=O)CC1(CCCC1)C2 (stereo partly drawn) [US20250313563, Compound 789562] | 100 to 1000 nM | < 100 nM
CC[C@]1(c2ccccc2)C2=CN=NC2NC2=C1C(=O)C(O)C(C)(C)C2 (stereo partly drawn) [US20250313563, Compound 946056] | > 5000 nM | 100 to 1000 nM
CCC1(c2cccc(-c3cncn3C)c2)C2=C(CC(C)(C)NC2=O)NC2N=NC(C)=C21 (stereo not drawn) [US20250313563, Compound 947565] | < 100 nM | < 100 nM
CC1(C)CC(=O)C2=C(C1)NC1=C(CN=N1)C21CCN(S(=O)(=O)c2ccccc2)CC1 [US20250313563, Compound 874530] | < 100 nM and 1000 to 5000 nM | < 100 nM and 100 to 1000 nM
CC[C@@]1(c2cccc(C3=C(C)SN(C)C3)c2)C2=CN=NC2NC2=C1C(=O)NC1(CCC1)C2 (stereo partly drawn) [US20250313563, Compound 950056] | > 5000 nM | 100 to 1000 nM
CC(C)C(=O)N1CC2(C1)CC1(CO2)C2=C(N=NC2)NC2=C1C(=O)CC(C)(C)C2 (stereo not drawn) [US20250313563, Compound 947304] | 100 to 1000 nM | < 100 nM

Results, then the compound that gave them:

IC50 [1] | IC50 [2] | SMILES
< 100 nM | < 100 nM | CCC1(c2cccc(-c3cn(C)nc3C)c2)C2=C(CC(C)(C)NC2=O)NC2N=NC(C(F)F)=C21 (stereo not drawn) [US20250313563, Compound 949170]
< 100 nM | < 100 nM | CC1(C)CC(=O)C2=C(C1)NC1=C(CN=N1)[C@]21COC2(CN(C(=O)C(C)(F)F)C2)C1 [US20250313563, Compound 947838]
> 5000 nM | > 5000 nM | CC[C@]1(c2cccc(C3=C4CC=C(F)C=C4N=CC3)c2)C2=CN=NC2NC2=C1C(=O)NC(C)(C)C2 (stereo partly drawn) [US20250313563, Compound 948519]
100 to 1000 nM | < 100 nM | CCC1(c2cccc(N(C)c3cccc(C)n3)c2)C2=CN=NC2NC2=C1C(=O)CC(C)(C)C2 (stereo not drawn) [US20250313563, Compound 913255]
> 5000 nM | > 5000 nM | CC[C@@]1(c2cccc(-c3cc(C)nc(C)c3)c2)C2=CN=NC2NC2=C1C(=O)CC(C)(C)C2 (stereo partly drawn) [US20250313563, Compound 913223]
> 5000 nM | > 5000 nM | CC[C@]1(c2cccc(N(C)c3cccc(OC)n3)c2)C2=CN=NC2NC2=C1C(=O)CC(C)(C)C2 (stereo partly drawn) [US20250313563, Compound 932646]
< 100 nM | < 100 nM | CCC1(c2cccc(-c3c(C)nn(C)c3C)c2)C2=CN=NC2NC2=C1C(=O)CC(C)(C)C2 (stereo not drawn) [US20250313563, Compound 883851]
1000 to 5000 nM | 100 to 1000 nM | CC[C@H]1C[C@]2(CO1)C1=C(N=NC1)NC1=C2C(=O)CC(C)(C)C1 [US20250313563, Compound 913214]
100 to 1000 nM | < 100 nM | CCn1nc(C)cc1S(=O)(=O)N1CCC2(CC1)C1=CN=NC1NC1=C2C(=O)CC(C)(C)C1 (stereo not drawn) [US20250313563, Compound 947609]
> 5000 nM | 100 to 1000 nM | CC[C@]1(c2cccc(-c3ccnc4cc(Cl)c(C)cc34)c2)C2=CN=NC2NC2=C1C(=O)NC(C)(C)C2 (stereo partly drawn) [US20250313563, Compound 948645]
> 5000 nM | 1000 to 5000 nM | CC[C@@]1(c2cccc(C(F)(F)F)c2)C2=CN=NC2NC2=C1C(=O)N(c1ccc(C)cc1)CC2 (stereo partly drawn) [US20250313563, Compound 949119]
< 100 nM | < 100 nM | CC1(C)CC(=O)C2=C(C1)NC1=C(CN=N1)C21CCN(S(=O)(=O)c2ccccc2C#N)CC1 [US20250313563, Compound 947479]
100 to 1000 nM | 100 to 1000 nM | CC[C@]1(c2cccc(-c3cncn3C)c2)C2=C(CC(C)(C)NC2=O)NC2N=NC(C(F)(F)F)=C21 (stereo partly drawn) [US20250313563, Compound 949003]
< 100 nM | < 100 nM | COc1ccccc1S(=O)(=O)N1CC2(C1)C1=C(N=NC1)NC1=C2C(=O)CC(C)(C)C1 [US20250313563, Compound 913261]
> 5000 nM | > 5000 nM | CC[C@]1(c2cccc(C(F)(F)F)c2)C2=CN=NC2NC2=C1C(=O)C[C@@]1(CCNC1=O)C2 (stereo partly drawn) [US20250313563, Compound 950332]
< 100 nM and 1000 to 5000 nM | < 100 nM and 100 to 1000 nM | CCOc1cccc(S(=O)(=O)N2CCC3(CC2)C2=C(N=NC2)NC2=C3C(=O)CC(C)(C)C2)c1 [US20250313563, Compound 947253]
< 100 nM | < 100 nM | CC[C@]1(c2cccc(Oc3cncnc3)c2)C2=CN=NC2NC2=C1C(=O)CC(C)(C)C2 (stereo partly drawn) [US20250313563, Compound 945933]
> 5000 nM | 100 to 1000 nM | CC[C@@]1(c2cccc(-c3cnn(CC(=O)N(C)C)c3)c2)C2=CN=NC2NC2=C1C(=O)NC(C)(C)C2 (stereo partly drawn) [US20250313563, Compound 952208]
< 100 nM | < 100 nM | CC1(C)CC(=O)C2=C(C1)NC1=C(CN=N1)C21CCN(S(=O)(=O)c2cnc3n2CCCC3)CC1 [US20250313563, Compound 947480]
< 100 nM | < 100 nM | CC[C@]1(c2cccc(S(C)(=O)=O)c2)C2=C(CC(C)(C)NC2=O)NC2N=NC(C(F)(F)F)=C21 (stereo partly drawn) [US20250313563, Compound 948418]
1000 to 5000 nM | 100 to 1000 nM | CC1(C)CC(=O)C2=C(NC3N=NC=C3C23CCOCC3)[C@H]1F (stereo partly drawn) [US20250313563, Compound 883833]
> 5000 nM | 1000 to 5000 nM | CC[C@]1(c2cccc(N(C)c3ccccn3)c2)C2=CN=NC2NC2=C1C(=O)CC(C)(C)C2 (stereo partly drawn) [US20250313563, Compound 875608]
100 to 1000 nM | < 100 nM | CCC1(c2cccc(-c3cc(C)nn3C)c2)C2=CN=NC2NC2=C1C(=O)CC(C)(C)C2 (stereo not drawn) [US20250313563, Compound 929402]
